Values joined by “and” are separate entries in the source; they are usually repeats but may differ in a detail not shown here. Equal entries are not always repeated.
How the values were obtained:
platelet rich plasma = test: Platelet aggregation in platelet rich plasma from injected rabbit (ex vivo); conditions: injected with about 72 mg/kg of body weight; blood sample after 5 hours
Experimental: (§1) A rabbit is injected with about +72 mg/kg of body weight of triethyl amine bisulfite. After a period of 5 hours, a blood sample was withdrawn and centrifuged at 1000 r.p.m. (220 g) for 10 minutes to give a platelet rich plasma. […] It is concluded that triethyl amine bisulfite is an agent which inhibits thrombotic condition formation in vivo.
as §1, with “72” for “+72”, “sodium formaldehyde” for “triethyl amine”, “minuts” for “minutes”, “thrombus” for “thrombotic condition”

human plasma [1] = test: Thrombin time (TT) in vitro, standard method; type: biochemical; conditions: U.S.P. grade, control 12.00
Experimental: (§2) The effect of U.S.P. grade sodium bisulfite on blood coagulation factors is evaluated by standard procedures (Biggs) and the results are shown in Table III below.

FACTOR V = biological target: T1, FACTOR V (Homo sapiens, UniProt P12259); test: Coagulation factor assay (Biggs): Factor V; type: biochemical; conditions: U.S.P. grade, control 75
T1 construct: from tissue; host or cells: human plasma
T1 sequence (P12259 29-2224): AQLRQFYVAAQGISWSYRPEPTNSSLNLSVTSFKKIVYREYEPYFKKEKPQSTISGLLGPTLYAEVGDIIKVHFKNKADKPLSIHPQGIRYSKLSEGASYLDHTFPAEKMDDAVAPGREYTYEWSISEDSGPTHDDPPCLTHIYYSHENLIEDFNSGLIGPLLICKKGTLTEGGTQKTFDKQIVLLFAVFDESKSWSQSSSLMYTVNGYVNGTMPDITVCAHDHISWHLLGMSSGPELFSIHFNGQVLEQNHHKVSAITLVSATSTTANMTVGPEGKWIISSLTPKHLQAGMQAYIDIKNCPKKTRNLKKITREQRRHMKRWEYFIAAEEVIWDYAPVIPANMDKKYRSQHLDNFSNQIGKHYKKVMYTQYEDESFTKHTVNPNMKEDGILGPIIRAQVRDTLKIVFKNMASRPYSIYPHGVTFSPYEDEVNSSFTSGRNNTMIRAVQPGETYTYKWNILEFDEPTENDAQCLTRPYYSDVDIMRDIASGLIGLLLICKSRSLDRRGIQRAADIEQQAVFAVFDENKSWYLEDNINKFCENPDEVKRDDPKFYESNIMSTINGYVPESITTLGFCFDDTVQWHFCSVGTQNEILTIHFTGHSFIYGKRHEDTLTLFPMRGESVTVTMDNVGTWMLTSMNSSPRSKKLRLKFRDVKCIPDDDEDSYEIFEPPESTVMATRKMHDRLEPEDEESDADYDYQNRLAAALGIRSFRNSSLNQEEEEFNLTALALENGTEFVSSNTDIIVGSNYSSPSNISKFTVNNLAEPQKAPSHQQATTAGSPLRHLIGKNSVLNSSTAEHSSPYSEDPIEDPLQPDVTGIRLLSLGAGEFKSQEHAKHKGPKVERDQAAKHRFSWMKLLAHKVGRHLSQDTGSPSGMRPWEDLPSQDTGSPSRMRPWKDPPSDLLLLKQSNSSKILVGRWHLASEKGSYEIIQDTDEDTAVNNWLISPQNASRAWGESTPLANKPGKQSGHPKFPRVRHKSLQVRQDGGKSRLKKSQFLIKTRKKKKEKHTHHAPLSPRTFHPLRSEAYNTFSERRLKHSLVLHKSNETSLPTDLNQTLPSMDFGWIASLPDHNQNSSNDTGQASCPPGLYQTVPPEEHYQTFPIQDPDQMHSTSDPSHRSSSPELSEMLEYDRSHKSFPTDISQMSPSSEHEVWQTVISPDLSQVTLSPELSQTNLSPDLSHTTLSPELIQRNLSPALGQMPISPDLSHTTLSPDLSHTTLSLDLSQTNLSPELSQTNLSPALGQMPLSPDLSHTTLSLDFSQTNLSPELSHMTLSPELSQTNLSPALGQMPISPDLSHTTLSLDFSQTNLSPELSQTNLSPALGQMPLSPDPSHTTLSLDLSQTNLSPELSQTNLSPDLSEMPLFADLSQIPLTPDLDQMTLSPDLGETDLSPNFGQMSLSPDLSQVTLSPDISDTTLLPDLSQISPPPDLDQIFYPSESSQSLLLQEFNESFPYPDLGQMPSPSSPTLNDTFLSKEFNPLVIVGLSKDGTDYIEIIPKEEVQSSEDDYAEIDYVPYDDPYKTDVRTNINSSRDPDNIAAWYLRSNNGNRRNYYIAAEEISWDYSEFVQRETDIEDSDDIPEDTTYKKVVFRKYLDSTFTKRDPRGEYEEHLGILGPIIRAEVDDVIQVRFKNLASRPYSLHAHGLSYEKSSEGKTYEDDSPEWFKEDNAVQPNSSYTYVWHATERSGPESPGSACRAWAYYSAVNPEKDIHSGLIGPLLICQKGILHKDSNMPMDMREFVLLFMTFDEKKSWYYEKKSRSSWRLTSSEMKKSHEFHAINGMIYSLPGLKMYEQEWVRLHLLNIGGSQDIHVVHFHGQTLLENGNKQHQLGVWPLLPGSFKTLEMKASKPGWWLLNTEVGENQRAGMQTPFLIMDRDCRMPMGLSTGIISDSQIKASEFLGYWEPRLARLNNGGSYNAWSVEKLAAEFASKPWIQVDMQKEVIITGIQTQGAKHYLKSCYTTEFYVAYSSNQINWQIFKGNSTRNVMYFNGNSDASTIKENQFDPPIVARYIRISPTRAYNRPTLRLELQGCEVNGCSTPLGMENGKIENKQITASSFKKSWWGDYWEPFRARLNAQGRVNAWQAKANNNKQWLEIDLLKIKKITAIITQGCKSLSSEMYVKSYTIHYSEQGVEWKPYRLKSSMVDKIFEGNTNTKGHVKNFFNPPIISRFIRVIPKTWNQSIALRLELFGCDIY
Experimental: as §2
(§3) References for PT, PTT, and assays of all the coagulation factors can be found in a standard textbook, entitled "Human Blood Coagulation, Haemostasis and Thrombosis", edited by Rosemary Biggs, published by Blackwell Scientific Publications, Oxford, England (2nd edition), pages 670-705, 1976.

F VIII = biological target: T2, F VIII (Homo sapiens, UniProt P00451); test: Coagulation factor assay (Biggs): Factor VIII; type: biochemical; conditions: for F VIII (%): U.S.P. grade, control 57
T2 construct: from tissue; host or cells: human plasma
T2 sequence (P00451 20-2351): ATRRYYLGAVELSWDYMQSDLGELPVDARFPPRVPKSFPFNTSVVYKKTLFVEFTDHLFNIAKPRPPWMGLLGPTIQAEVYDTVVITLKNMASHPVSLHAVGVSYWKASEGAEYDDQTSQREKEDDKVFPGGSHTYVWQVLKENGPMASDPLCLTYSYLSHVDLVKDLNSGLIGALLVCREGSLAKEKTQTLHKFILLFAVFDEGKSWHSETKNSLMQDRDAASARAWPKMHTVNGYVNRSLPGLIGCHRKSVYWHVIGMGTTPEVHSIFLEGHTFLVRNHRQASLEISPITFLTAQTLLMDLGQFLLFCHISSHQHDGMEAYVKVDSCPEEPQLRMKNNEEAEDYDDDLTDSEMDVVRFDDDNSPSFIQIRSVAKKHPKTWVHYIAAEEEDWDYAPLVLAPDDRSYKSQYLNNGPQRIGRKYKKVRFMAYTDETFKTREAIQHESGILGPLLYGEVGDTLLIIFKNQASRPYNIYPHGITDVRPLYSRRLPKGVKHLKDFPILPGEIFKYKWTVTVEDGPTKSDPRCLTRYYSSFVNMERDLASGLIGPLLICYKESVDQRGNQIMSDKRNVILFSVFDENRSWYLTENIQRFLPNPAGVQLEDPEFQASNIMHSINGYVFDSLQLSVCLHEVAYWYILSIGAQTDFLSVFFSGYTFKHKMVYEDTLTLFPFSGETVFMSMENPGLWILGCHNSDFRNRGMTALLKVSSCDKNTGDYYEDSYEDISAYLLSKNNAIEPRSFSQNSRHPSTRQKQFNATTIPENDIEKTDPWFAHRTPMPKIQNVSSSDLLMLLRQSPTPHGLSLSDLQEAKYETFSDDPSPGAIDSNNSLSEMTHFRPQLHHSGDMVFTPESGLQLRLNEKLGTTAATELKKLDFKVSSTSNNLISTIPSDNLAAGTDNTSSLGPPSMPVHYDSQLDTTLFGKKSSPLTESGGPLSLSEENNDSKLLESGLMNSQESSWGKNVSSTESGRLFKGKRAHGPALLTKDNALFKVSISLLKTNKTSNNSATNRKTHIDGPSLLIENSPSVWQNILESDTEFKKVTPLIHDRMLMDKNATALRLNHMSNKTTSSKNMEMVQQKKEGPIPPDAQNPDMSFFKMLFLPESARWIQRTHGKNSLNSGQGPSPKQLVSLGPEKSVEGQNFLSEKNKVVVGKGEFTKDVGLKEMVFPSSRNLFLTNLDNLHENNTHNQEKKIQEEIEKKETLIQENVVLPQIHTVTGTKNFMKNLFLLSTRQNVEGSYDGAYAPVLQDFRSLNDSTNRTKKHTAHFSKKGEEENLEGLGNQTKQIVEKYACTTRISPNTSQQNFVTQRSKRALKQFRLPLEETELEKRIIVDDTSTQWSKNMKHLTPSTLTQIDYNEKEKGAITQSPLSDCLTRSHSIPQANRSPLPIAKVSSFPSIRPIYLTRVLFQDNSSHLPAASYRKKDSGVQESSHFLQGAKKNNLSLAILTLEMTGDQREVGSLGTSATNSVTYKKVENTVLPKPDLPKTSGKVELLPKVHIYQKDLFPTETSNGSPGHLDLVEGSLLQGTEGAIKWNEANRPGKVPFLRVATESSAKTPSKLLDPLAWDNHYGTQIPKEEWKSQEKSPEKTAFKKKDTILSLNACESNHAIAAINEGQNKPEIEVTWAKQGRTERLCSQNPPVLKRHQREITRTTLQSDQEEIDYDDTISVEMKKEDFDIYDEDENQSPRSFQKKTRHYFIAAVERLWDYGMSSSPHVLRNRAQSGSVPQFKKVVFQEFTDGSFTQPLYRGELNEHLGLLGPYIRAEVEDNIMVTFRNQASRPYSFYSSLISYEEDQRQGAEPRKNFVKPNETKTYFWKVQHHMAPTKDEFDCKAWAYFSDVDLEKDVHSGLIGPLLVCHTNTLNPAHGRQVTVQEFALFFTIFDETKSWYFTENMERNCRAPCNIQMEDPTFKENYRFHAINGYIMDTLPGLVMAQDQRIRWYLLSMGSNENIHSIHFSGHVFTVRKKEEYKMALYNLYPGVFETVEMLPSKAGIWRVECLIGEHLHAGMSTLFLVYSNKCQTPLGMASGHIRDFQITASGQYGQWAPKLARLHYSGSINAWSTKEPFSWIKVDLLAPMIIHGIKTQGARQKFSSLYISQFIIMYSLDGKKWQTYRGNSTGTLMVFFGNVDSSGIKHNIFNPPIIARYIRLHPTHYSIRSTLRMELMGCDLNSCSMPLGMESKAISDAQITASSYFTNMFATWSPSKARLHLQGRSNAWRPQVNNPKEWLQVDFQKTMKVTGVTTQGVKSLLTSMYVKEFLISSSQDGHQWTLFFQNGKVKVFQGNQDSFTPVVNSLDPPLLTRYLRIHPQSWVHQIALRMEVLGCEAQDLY
Experimental: as §2, §3

human plasma [2] = test: Blood coagulation evaluation by standard procedures (Biggs), overall result; type: biochemical; conditions: 5 mg/ml
Experimental: as §2
When this procedure is repeated using human plasma,
References for PT, PTT, and assays in vitro of all the coagulation factors can be found in a standard textbook, entitled "Human Blod Coagulation, Haemostatis and Thrombosis", edited by Rosemary Biggs, published by Blackwell Scientific Publications, Oxford, England (2nd edition), pages 670-705, 1976.

rat plasma = test: Blood coagulation tests (PT, PTT, coagulation factors) in vitro; type: biochemical
Excerpt: The alkali metalbisulfites, sodium and potassium, and ammonium bisulfite are found to prolong PT and PTT in a dose-related fashion.

RATS = test: Rats fed bait containing 0.5% sodium bisulfite; type: in vivo
Excerpt: Five rats, each in a separate cage, were given a bait containing 0.5 percent by weight of sodium bisulfite. The bait consisted of cracked grains (wheat, corn, millet, and corn meal). The amounts of bait eaten are summarized for an eleven day period.

[3] = Human use, oral drops with meals (case histories); type: in vivo
Excerpt: To evaluate the effect of sodium bisulfite in human use (this agent being known to be safe for human consumption), certain patients received this agent. The case history and observations are summarized individually below.
In each case, each patient is provided with such a bottle of Solution D, unless otherwise noted, and is instructed to dose himself (or herself, as the case may be) from the bottle so provided at the rate of seven drops to be taken orally with each of his (her) three daily meals. When the contents of one such bottle is thus so gradually consumed by an individual patient, another is provided to him (her).

blood = test: Storage of blood samples with added sodium bisulfite solution; design: species or system human; conditions: about 4 cc blood + about 10 drops of 10 weight percent solution; about 2 1/2 years at ambient temperatures
Experimental: Samples of about 4 cc each of blood were prepared. To each of these was added about 10 drops of a solution 10 weight percent and sodium bisulfite in distilled water. Each sample was then sealed into a glass vial.

CCN(CC)CC.O=S(O)O [TRIETHYL AMINE BISULFITE, triethyl amine bisulfite]
aggregation of platelets in comparison with an untreated rabbit (platelet rich plasma): markedly decreased

Sodium bisulfite
TT (human plasma [1]; 0.01 mg/ml): 12.07 s | TT (human plasma [1]; 0.05 mg/ml): 12.10 s | TT (human plasma [1]; 0.1 mg/ml): 12.00 s | TT (human plasma [1]; 0.5 mg/ml): 13.97 s | TT (human plasma [1]; 1.0 mg/ml): 16.08 s | TT (human plasma [1]; 5.0 mg/ml): 34.3 s | FACTOR V (%) (FACTOR V; 0.01 mg/ml): 74% | FACTOR V (%) (FACTOR V; 0.05 mg/ml): 72% | FACTOR V (%) (FACTOR V; 0.1 mg/ml): 80% | FACTOR V (%) (FACTOR V; 0.5 mg/ml): 70% | FACTOR V (%) (FACTOR V; 1.0 mg/ml): 60% | FACTOR V (%) (FACTOR V; 5.0 mg/ml): 54% | effect on Factor VIII (F VIII): mildly affected | F VIII (%) (F VIII; 0.01 mg/ml): 62% | F VIII (%) (F VIII; 0.05 mg/ml): 68% | F VIII (%) (F VIII; 0.1 mg/ml): 55% | F VIII (%) (F VIII; 0.5 mg/ml): 58% | F VIII (%) (F VIII; 1.0 mg/ml): 29% | F VIII (%) (F VIII; 5.0 mg/ml): 11% | coagulation of human plasma (human plasma [2]): completely disrupted | PT and PTT (effect in words) (rat plasma; rat plasma in vitro, 0.5 mg/ml): significantly prolong | blood coagulation factors (rat plasma; rat plasma, compared with human plasma): not as sensitive | mortality (RATS; 2 days, rats 1 and 4): DIED | FIRST DAY BLOOD FACTOR PT (RATS; rat 5): 27 | FIRST DAY BLOOD FACTOR PT, increase (RATS; rats 1-3): 26% increase and 24% increase and 28% increase | Case IV: blood cholesterol value ([3]; after about 5 years of medication, before between 200 and 220 mg %): about 144 mg % | Case IV: hypertension, arthritis, arrithmia, hemorrhoids, dispepsia, cyanotic fingers and toes, malaise, lassitude ([3]; man, Solutions A, B, C, or D orally, up to 20 drops per meal, within 2-3 months): all of the above identified conditions improved (except for diabetes) | coagulation of stored blood samples (blood): have not coagulated
